Source: patent US20170106017A1 (priority 2014, published 2017)
Like-named read-outs stand apart in the source and are kept apart here.

Experiments:
[1] = test system: ALS patients; conditions: for ALSFRS-R level over the course of treatment: 1-2 mg/kg/infusion, 6 months
Experimental: Patients diagnosed with ALS are treated with chlorite over the course of 6 months. Based upon the initial concentration of IL-18 at the baseline or its baseline level, patients are sorted into two groups. Patients with baseline level of IL-18 higher than 60 pg/mL are assigned in IL-18-high group and patients with baseline level of IL-18 lower than 60 pg/mL are assigned in IL-18-low group. Both groups are treated with 1-2 mg/kg/infusion chlorite over the course of 6 months. ALSFRS-R scores and IL-18 levels are recorded at different time points during the treatment and compared between IL-18-high and IL-18-low groups.

[2] = test system: ALS patients; conditions: for decline in vital capacity: at least 6 months of treatment
Experimental: (§1) A randomized, double-blind, placebo-controlled study was administered over six cycles. Patients were treated with chlorite 2 mg/kg/infusion, or placebo. […] Samples from both responders and non-responders were collected and tested at different time points, e.g., at baseline (pre-dose Cycle 1, Week 1), 1-month, 2-month, 3-month, 4-month, 5-month and 6-month. ALSFRS-R scores and biomarkers levels were measured in responders and non-responders at selected time points and compared to the placebo group.

[3] = test system: ALS patients; conditions: for mean decrease in ALSFRS-R score: 3-month off-drug follow-up; for estimated ALSFRS-R slope: patients less than the baseline median wr-CRP; for estimated ALSFRS-R slope decline: patients with baseline wrCRP at or above the median
[4] = test system: PD patients; conditions: 1-2 mg/kg/infusion, 6 months
[5] = test system: CD16 expression on CD16 bright monocytes; conditions: 0.2-3.2 mg/kg single dose, 24 hours after dosing
[6] = test system: IL-18
Experimental: A randomized, double-blind, placebo-controlled study was administered over six cycles. Patients were treated with chlorite 2 mg/kg/infusion, or placebo. Patients were scheduled to receive a total of 20 infusions over 6 cycles during a 25-week (or 6-month) treatment period. […] Levels of biomarkers can be measured with techniques known in the art, e.g., ELISA or flow cytometry.

[7] = test system: LPS; conditions: for responders with decreased LPS: at least 6 months of treatment
Experimental: as §1

[8] = test system: AD patients; conditions: 1-2 mg/kg/infusion, 6 months
[9] = test system: ALS patients; conditions: 1-2 mg/kg/infusion, at least 6 months
[10] = test system: G93A SOD1 congenic strain of mice; conditions: preliminary studies (McGrath et al., 2010); cited from earlier work
[11] = test system: IL-18; conditions: 1-2 mg/kg/infusion, 6 months; for plasma level of IL-18 after treatment: responders
Experimental: Thirty two patients diagnosed with ALS were treated with chlorite over the course of 6 months. The initial plasma concentration of IL-18 in each patient was recorded and set as the baseline level. Patients were treated with 1-2 mg/kg/infusion chlorite over the course of 6 months. ALSFRS-R scores and IL-18 levels were recorded at different time points during the treatment and compared with the initial concentration.

## sodium chlorite [NP001]
[1]; IL-18-high group (baseline IL-18 higher than 60 pg/mL)
  ALSFRS-R level over the course of treatment: stabilizes
[1]; IL-18-high vs IL-18-low group
  decrease in IL-18 baseline level: can only be observed in IL-18-high group
[1]; IL-18-low group (baseline IL-18 lower than 60 pg/mL)
  ALSFRS-R level over the course of treatment: no stabilization
[2]; 2 mg/kg, patients with high plasma level of IL-18, IL-6, INF-g, and CPR
  disease progression of ALS patients: capable of slowing the disease progression
[2]; high dose group (2 mg/kg), 6-month treatment period
  percentage of patients who did not progress (responders): 27%
[2]; high dose group vs placebo (11%)
  percentage of non-progressing patients relative to placebo group: approximately 2.5 times
[2]; non-responders, 1 mg
  decline in vital capacity: −17.7+/−17.9
[2]; non-responders, 2 mg
  decline in vital capacity: −14.5+/−13.2
[2]; responders
  ALSFRS-R score over the 6-month treatment period: remained stable
[2]; responders, 1 mg
  decline in vital capacity: −8.95+/−10.1
[2]; responders, 2 mg
  decline in vital capacity: −3.76+/−5.7
[3]; 1 mg/kg
  effect on ALSFRS-R slope and change from baseline compared to placebo: minimal or no effect dose
  mean decrease in ALSFRS-R score: −3.7
  estimated ALSFRS-R slope: −1.38
  estimated ALSFRS-R slope decline: −0.73 points per month
[3]; 2 mg/kg
  mean decrease in ALSFRS-R score: −3.3
  estimated ALSFRS-R slope: −0.87
  estimated ALSFRS-R slope decline: −0.55 points per month
[3]; 2 mg/kg, 6 months of treatment (Weeks 1 through 25)
  ALSFRS-R mean slope: −0.77 points per month
[3]; 2 mg/kg, 6 months, concurrent placebo
  percent change in ALSFRS-R mean slope compared to placebo: 13%
[3]; 2 mg/kg, baseline wrCRP at or above the median, p=0.2
  improvement in rate of progression compared to placebo: 41%
[3]; 2 mg/kg, with addition of matched historical placebo control patients
  slowing of change in ALSFRS-R from baseline: 21%
[3]; 2 mg/kg, with matched historical placebo controls, p=0.16
  improvement in the rate of progression compared to combined placebo controls: 19%
[3]; 2 mg/kg, without addition of matched historical placebo control patients
  slowing of change in ALSFRS-R from baseline: 17%
[3]; high dose (2 mg/kg), off-drug follow-up
  slower functional decline (residual) in mean change in ALSFRS-R compared to placebo: 11%
[4]
  treatment of Parkinson's patients: capable of treating Parkinson's patients
[5]
  level of CD16 expression on the CD16 bright subset of monocytes vs placebo: Dose-dependent changes
[6]; high dose responders, at least 6 months of treatment
  responders with decreased IL-18: 80%
[6]; low dose group responders (8), at least 6 months of treatment
  responders with decrease in IL-18: 1 patient
[6]; non-responders, after 25 weeks
  change of plasma IL-18 level from baseline: increase
[6]; responders, after 25 weeks of treatment
  change of plasma IL-18 level from baseline: decrease
[7]; high dose responders
  responders with decreased LPS: 70%
[7]; low dose group responders (8)
  responders with decreased LPS: half
[7]; non-responders, baseline about 0.35
  LPS level at week 24: about 0.2
[7]; non-responders, week 24
  decrease of LPS level from baseline: about 40%
[7]; responders, week 24, baseline about 0.3
  LPS level after treatment: undetectable level
[7]; responders, week 24, calculated with minimum detection level about 0.075
  decrease of LPS level from baseline: about 75%
[8]
  treatment of AD patients: capable of treating AD patients
[9]
  relationship between mean ALSFRS-R levels and mean baseline levels of biomarkers: linear relationship with a positive slope
[10]
  survival, treated compared to control mice: significant survival improvement
[11]; 32 ALS patients
  number of non-responders: 22
  number of responders: 10
[11]
  plasma level of IL-18 after treatment: decreased
[11]; listed as chlorite/NP001
  plasma level of IL-18 after treatment: capable of lowering IL-18 plasma level
